Assay results: patent US20130178453A1, “Cannabinoid Agonists” (priority 2010, published 2013)
Read-outs that look alike come from different tables or passages of the source.

What was measured:
[1] = target: T1, hCB2 (Homo sapiens, UniProt P34972); assay: hCB2 GTPγS agonist assay (HEK-293 membranes); format: biochemical
Method: (§1) cDNA expression clones for human CB 1 (hCB1, Genbank Accession No. AY225225) and human CB2 (hCB2, Genbank Accession No. AY242132) expressed in vector pcDNA3.1+ were purchased from UMR cDNA Resource Center, Rolla, Mo. (Clone ID CNR01L000 for hCB1; CNR0200000 for hCB2).
(§2) Membranes were isolated from transfected cells as follows. Monolayers of cultured cells were washed twice with phosphate-buffered saline (PBS). […] Homogenates were centrifuged 10 minutes at 1000×g at 4° C. The supernatant was collected and was centrifuged for 1 hour at 40,000×g. The supernatant was then decanted and the resulting pellet was re-suspended in 20 mM HEPES, pH 7.4, 5 mM MgCl2, 1 mM EDTA, 10% sucrose with complete cocktail protease inhibitors. Protein concentration of membrane suspensions were measured by Bradford Protein Assay using bovine serum albumin as the standard (BioRad catalog #500-0006). Protein concentrations of membrane suspensions were adjusted with the final buffer in the range of 5 to 10 mg/mL and were stored at −80° C. until further use.
^35S GTPγS binding assays were performed by incubating recombinant cell membranes prepared above (5 μg) in the presence of scintillation proximity assay beads (SPA beads, Catalog #RPNQ0252 GE Healthcare, Buckinghamshire, England) in GTPγS binding buffer [50 mM HEPES (pH 7.4), 100 mM NaCl, 5 mM MgCl2, 0.001% saponin (Sigma catalog #S4521)] supplemented with 20 uM GDP (Sigma catalog #G7127) in the presence or absence of test compound. The reaction was carried out in 96-well microplates with 0.1 nM [^35S]GTPγS (specific activity=1250 Ci/mmol; Perkin Elmer catalog #NEG030X250UC) in a final volume of 100 μL. After a 90 min room temperature incubation, the reaction was analyzed using a scintillation counter (Perkin Elmer Microbeta instrument). Binding data were analyzed using GraphPad Prism.

[2] = target: T2, hCB1 (Homo sapiens, UniProt P21554); assay: hCB1 radioligand binding assay ([3H]-CP 55,940 displacement); conditions: hCB1 IC50 (CP displ, nM, HEK), HEK membranes
T2 sequence (P21554 whole entry): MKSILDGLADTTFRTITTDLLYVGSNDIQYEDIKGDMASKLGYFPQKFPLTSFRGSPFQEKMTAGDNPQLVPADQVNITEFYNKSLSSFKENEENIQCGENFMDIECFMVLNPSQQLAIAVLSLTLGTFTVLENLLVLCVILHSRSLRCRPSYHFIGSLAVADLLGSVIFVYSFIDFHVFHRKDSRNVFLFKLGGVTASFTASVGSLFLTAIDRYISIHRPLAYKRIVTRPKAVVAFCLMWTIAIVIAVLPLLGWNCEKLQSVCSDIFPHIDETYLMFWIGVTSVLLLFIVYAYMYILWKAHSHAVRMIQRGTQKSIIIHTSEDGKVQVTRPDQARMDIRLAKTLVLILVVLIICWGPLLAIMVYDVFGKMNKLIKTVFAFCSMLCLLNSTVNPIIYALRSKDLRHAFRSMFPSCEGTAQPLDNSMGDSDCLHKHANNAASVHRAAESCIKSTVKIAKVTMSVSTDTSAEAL
Description: as §1
Stable, HEK-293-derived cell lines that recombinantly express hCB1 or hCB2 were established. In brief, the clone hCB1 (CNR1L) or hCB2 (CNR2) was transfected into human embryonic kidney cells (HEK-293) using Lipofectamine 2000 (Gibco, Cat#11668-019) according to the manufacturer's protocol. Transfected clones were isolated by single colony purification and clones were screened for receptor expression using a whole cell, ^3H—CP 55,940 radioligand binding assay. HEK-293 stable cells were maintained in Dulbecco's modified Eagles medium (DMEM) containing 10% fetal bovine serum, 2 mM L-glutamine and 0.5 mg/mL G-418.
Membranes were isolated from transfected cells as follows. Monolayers of cultured cells were washed twice with phosphate-buffered saline (PBS). Cells were scraped into 20 mM HEPES, pH 7.4, 10 mM EDTA containing complete cocktail protease inhibitors (Roche, Catalog #11 697 498 001), and were homogenized by an electric-powered mechanical probe homogenizer (Omni GLH; probe G7-195S) for 40 seconds at 7000 rpm. Homogenates were centrifuged 10 minutes at 1000×g at 4° C. The supernatant was collected and was centrifuged for 1 hour at 40,000×g. The supernatant was then decanted and the resulting pellet was re-suspended in 20 mM HEPES, pH 7.4, 5 mM MgCl2, 1 mM EDTA, 10% sucrose with complete cocktail protease inhibitors. Protein concentration of membrane suspensions were measured by Bradford Protein Assay using bovine serum albumin as the standard (BioRad catalog #500-0006). Protein concentrations of membrane suspensions were adjusted with the final buffer in the range of 5 to 10 mg/mL and were stored at −80° C. until further use.
Radioligand binding assays were performed by incubating membranes (2-10 μg protein) prepared from HEK-293 cells expressing recombinant human cannabinoid receptors, CB 1 or CB2, at room temperature with 0.5 nM cannabinoid receptor agonist, [^3H]-CP 55,940 (Perkin Elmer, catalog #NET 1051) in 0.2 mL of binding buffer (50 mM Tris-HCl, pH 7.5, 5 mM MgCl2, 2.5 mM EDTA) and 0.1% fatty acid free bovine serum albumin (Sigma Cat. #A0821) for 90 minutes. A rapid filtration technique using Millipore FB filter plates (Catalog #MADVNOB) and filtration apparatus (Millipore system Catalog MAVM0960R) with vacuum aspiration was used to harvest and rinse labeled membranes (8 times with 0.2 mL of chilled binding buffer). The radioactivity bound to the filters was counted with 0.05 mL of liquid scintillant (UltraGold MV, PerkinElmer catalog #6013159) in a scintillation counter (Perkin Elmer Microbeta instrument). Nonspecific binding was determined in the presence of unlabeled 1 μM CP 55,940 (Sigma Aldrich, catalog #C1112). Binding data were analyzed using GraphPad Prism (GraphPad Software, Inc. San Diego, Calif.).

[3] = target: T2, hCB1; assay: hCB1 cAMP agonist assay (HEK-293 cells); format: cell-based
[4] = target: T1, hCB2; assay: hCB2 cAMP agonist assay (HEK-293 cells); format: cell-based
Method: as §1
cAMP assays were performed in HEK-293 cells stably expressing human CB 1 or CB2 receptors. […] Cells suspensions were centrifuged and the cells were washed once with PBS, were centrifuged again, and the cells were resuspended in HBSS (Hank's Balanced Salt Solution, Cellgro, Cat #21-022-CV) solution containing 10 mM HEPES and 0.1% fatty acid free BSA (Sigma, Cat #A0281). Cell suspensions were prepared at 1,500,000 cells per mL. Stock solutions of test substances (10 mM) in DMSO were diluted to 1 mM using 30% DMSO as diluent. Test substances of solutions (1 mM) were further diluted down to 3× of final assay concentrations in the above HBSS buffer containing 0.1% BSA in the presence of 90 uM forskolin (Sigma Cat#F6886). To perform the assay, 20 μL of cell suspension (1,500,000 cells/mL) were added to each well in 96 well plate and treated with 10 μL test substance solution diluted as described above. Cells and compounds were incubated at 37° C. for 30 minutes. Cells were lysed and cAMP concentration was measured using DiscoveRx-XS+ cAMP assay kit (DiscoveRx Corporation Ltd., Fremont, Calif., USA, Cat #90-0075-03), following the manufacturer's protocol. GraphPad Prism software was used to calculate EC50 values using sigmoidal dose response curve fitting. The maximal amount of cAMP produced by forskolin was defined as 100%.

[5] = target: T1, hCB2; assay: hCB2 radioligand binding assay ([3H]-CP 55,940 displacement); conditions: hCB2 IC50 (CP displ, nM, HEK), HEK membranes
Method: as §1, §2
A rapid filtration technique using Millipore FB filter plates (Catalog #MADVNOB) and filtration apparatus (Millipore system Catalog MAVM0960R) with vacuum aspiration was used to harvest and rinse labeled membranes (8 times with 0.2 mL of chilled binding buffer). […] Binding data were analyzed using GraphPad Prism (GraphPad Software, Inc. San Diego, Calif.).

[6] = GTPγS agonist, HEK membranes, read-out: hCB2 EC50 (GTPyS ag, nM, HEK)
[7] = cAMP agonist, HEK, 96-well, read-out: hCB1 EC50 (cAMP ag, nM, HEK (96-well))
[8] = cAMP agonist, HEK, 96-well, read-out: hCB2 EC50 (cAMP ag, nM, HEK (96-well))

T1 sequence (P34972 whole entry): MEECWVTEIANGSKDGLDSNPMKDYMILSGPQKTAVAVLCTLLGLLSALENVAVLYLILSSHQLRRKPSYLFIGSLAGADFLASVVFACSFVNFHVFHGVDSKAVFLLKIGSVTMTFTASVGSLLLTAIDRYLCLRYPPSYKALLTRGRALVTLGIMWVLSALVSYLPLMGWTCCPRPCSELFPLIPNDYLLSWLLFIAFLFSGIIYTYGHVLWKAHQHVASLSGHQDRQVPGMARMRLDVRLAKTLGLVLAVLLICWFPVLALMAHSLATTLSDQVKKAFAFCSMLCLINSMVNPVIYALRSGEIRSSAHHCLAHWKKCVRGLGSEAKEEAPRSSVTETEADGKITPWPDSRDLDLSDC

| SMILES | EC50 [1] [nM] | IC50 [2] [nM] | EC50 [3] [nM] | EC50 [4] [nM] | IC50 [5] [nM] | EC50 [1, 6] [nM] | EC50 [3, 7] [nM] | EC50 [4, 8] [nM] | hCB1 EC50 (cAMP ag, nM, HEK (96-well)) ([3]; cAMP agonist, HEK, 96-well) |
| --- | --- | --- | --- | --- | --- | --- | --- | --- | --- |
| CCCCn1c(C)c(C(=O)c2cc3ccsc3n2CCC)c2ccccc21 [Compound I-58] | < 100 | 100 to 1000 | < 100 | < 100 | < 100 | – | – | – | – |
| CCCn1c(C)c(C(=O)c2cc3ccsc3n2CCC)c2c1CCCCC2 [Compound I-80] | – | 100 to 1000 | – | – | < 100 | < 100 | 1000 to 10000 | < 100 | – |
| CCCn1c(C(=O)c2cn(C)c3ccccc23)cc2ccsc21 [Compound I-47] | 100 to 1000 | 100 to 1000 | – | < 100 | < 100 | – | 100 to 1000 | – | – |
| CCn1c(C(=O)c2c(C)n(CCN3CCOC3=O)c3ccccc23)cc2ccsc21 [Compound I-25] | – | > 10000 | – | – | < 100 | < 100 | 1000 to 10000 | < 100 | – |
| CCCn1c(C)c(C(=O)c2cc3scnc3n2CC)c2ccccc21 [Compound I-31] | 100 to 1000 | 1000 to 10000 | – | < 100 | 100 to 1000 | – | – | – | NS (“Not Significant,” which means less than 30% agonist activity when compared to the positive control) |
| CCCn1c(C)c(C(=O)c2cc3ccsc3[nH]2)c2ccccc21 [Compound I-74] | 100 to 1000 | 1000 to 10000 | – | 100 to 1000 | 100 to 1000 | – | – | – | NS (“Not Significant,” which means less than 30% agonist activity when compared to the positive control) |
| CCCn1c(C(=O)c2c(C)n(CCN3CCOCC3)c3ccccc23)cc2ccsc21 [Compound I-73] | < 100 | 100 to 1000 | 100 to 1000 | < 100 | < 100 | – | – | – | – |
| CCCn1c(C)c(C(=O)c2cc3ccsc3n2CCC)c2cc(C)ccc21 [Compound I-69] | < 100 | 1000 to 10000 | – | < 100 | < 100 | – | – | – | NS (“Not Significant,” which means less than 30% agonist activity when compared to the positive control) |
| CCCn1c(C)c(C(=O)c2cc3ccsc3n2CC)c2cccc(OC)c21 [Compound I-36] | < 100 | 100 to 1000 | 100 to 1000 | < 100 | < 100 | – | – | – | – |
